Results as given in paper PMC9653409, “Generative deep learning enables the discovery of a potent and selective RIPK1 inhibitor” (Nature Communications, 2022).
Read-outs that look alike come from different tables or passages of the source.

What was measured:
Assay in all cases: Kinase inhibitory activity profiling of RI-962@10 µM (406 kinases, Eurofins)
Format in all cases: biochemical
[1] = molecular target: panel of human kinases (kinase named in endpoint) (Homo sapiens, UniProt O14920); conditions: 10 µM; read-out: Activity (%), IKKβ(h)
Procedure, shortened: (§1)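 Radiometric filter-binding kinase assays: enzyme preincubated 15 min with compound in 8 mM MOPS pH 7.0, 0.2 mM EDTA, 250 μM peptide substrate, 10 mM magnesium acetate, 10 μM [γ-33P]-ATP. Reaction started with Mg/ATP, run 40 min at room temperature, stopped with phosphoric acid; 33P incorporation read by scintillation counting. Other kinases by similar protocols.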

[2] = molecular target: panel of human kinases (kinase named in endpoint) (Homo sapiens, UniProt O15146); conditions: 10 µM; read-out: Activity (%), MuSK(h)
Procedure, shortened: as §1

[3] = molecular target: panel of human kinases (kinase named in endpoint) (Homo sapiens, UniProt O60331); conditions: 10 µM; read-out: Activity (%), PIP5K1g(h)
Procedure, shortened: as §1

[4] = molecular target: panel of human kinases (kinase named in endpoint) (Homo sapiens, UniProt P04626); conditions: 10 µM; read-out: Activity (%), ErbB2(h)
Procedure, shortened: as §1

[5] = molecular target: panel of human kinases (kinase named in endpoint) (Homo sapiens, UniProt P10721); conditions: 10 µM; read-out: Activity (%), cKit(h)
Procedure, shortened: as §1

[6] = molecular target: panel of human kinases (kinase named in endpoint) (Homo sapiens, UniProt P12931, T341M); conditions: 10 µM; read-out: Activity (%), Src(T341M)(h)
Procedure, shortened: as §1

[7] = molecular target: panel of human kinases (kinase named in endpoint) (Homo sapiens, UniProt P21802); conditions: 10 µM; read-out: Activity (%), FGFR2(h)
Procedure, shortened: as §1

[8] = molecular target: panel of human kinases (kinase named in endpoint) (Homo sapiens, UniProt P24941); conditions: 10 µM
Procedure, shortened: as §1

[9] = molecular target: panel of human kinases (kinase named in endpoint) (Homo sapiens, UniProt P34947); conditions: 10 µM; read-out: Activity (%), GRK5(h)
Procedure, shortened: as §1

[10] = molecular target: panel of human kinases (kinase named in endpoint) (Homo sapiens, UniProt P37173); conditions: 10 µM; read-out: Activity (%), TGFBR2(h)
Procedure, shortened: as §1

[11] = molecular target: panel of human kinases (kinase named in endpoint) (Homo sapiens, UniProt P43403); conditions: 10 µM; read-out: Activity (%), ZAP-70(h)
Procedure, shortened: as §1

[12] = molecular target: panel of human kinases (kinase named in endpoint) (Homo sapiens, UniProt P45983); conditions: 10 µM; read-out: Activity (%), JNK1α1(h)
Procedure, shortened: as §1

[13] = molecular target: panel of human kinases (kinase named in endpoint) (Homo sapiens, UniProt P49841); conditions: 10 µM; read-out: Activity (%), GSK3β(h)
Procedure, shortened: as §1

[14] = molecular target: panel of human kinases (kinase named in endpoint) (Homo sapiens, UniProt Q13315); conditions: 10 µM; read-out: Activity (%), ATM(h)
Procedure, shortened: as §1

[15] = molecular target: panel of human kinases (kinase named in endpoint) (Homo sapiens, UniProt Q13555); conditions: 10 µM; read-out: Activity (%), CaMKIIγ(h)
Procedure, shortened: as §1

[16] = molecular target: panel of human kinases (kinase named in endpoint) (Homo sapiens, UniProt Q15759); conditions: 10 µM; read-out: Activity (%), SAPK2b(h)
Procedure, shortened: as §1

[17] = molecular target: panel of human kinases (kinase named in endpoint) (Homo sapiens, UniProt Q15831); conditions: 10 µM; read-out: Activity (%), LKB1(h)
Procedure, shortened: as §1

[18] = molecular target: panel of human kinases (kinase named in endpoint) (Homo sapiens, UniProt Q6IQ55); conditions: 10 µM; read-out: Activity (%), TTBK2(h)
Procedure, shortened: as §1

[19] = molecular target: panel of human kinases (kinase named in endpoint) (Homo sapiens, UniProt Q8NG66); conditions: 10 µM; read-out: Activity (%), NEK11(h)
Procedure, shortened: as §1

[20] = molecular target: panel of human kinases (kinase named in endpoint) (Homo sapiens, UniProt Q96PF2); conditions: 10 µM; read-out: Activity (%), TSSK2(h)
Procedure, shortened: as §1

[21] = molecular target: panel of human kinases (kinase named in endpoint) (Homo sapiens, UniProt Q9NYY3); conditions: 10 µM; read-out: Activity (%), Snk(h)
Procedure, shortened: as §1

[22] = molecular target: panel of human kinases (kinase named in endpoint) (Homo sapiens, UniProt Q9UBE8); conditions: 10 µM; read-out: Activity (%), NLK(h)
Procedure, shortened: as §1

[23] = molecular target: panel of human kinases (kinase named in endpoint) (Homo sapiens, UniProt Q9UM73); conditions: 10 µM; read-out: Activity (%), ALK(h)
Procedure, shortened: as §1

[24] = molecular target: panel of human kinases (kinase named in endpoint) (Homo sapiens, UniProt Q9Y6M4); conditions: 10 µM; read-out: Activity (%), CK1γ3(h)
Procedure, shortened: as §1

[25] = test system: panel of human kinases (kinase named in endpoint); conditions: 10 µM
Procedure, shortened: as §1

panel of human kinases (kinase named in endpoint) (Homo sapiens, UniProt Q13315), sequence (Q13315 whole entry): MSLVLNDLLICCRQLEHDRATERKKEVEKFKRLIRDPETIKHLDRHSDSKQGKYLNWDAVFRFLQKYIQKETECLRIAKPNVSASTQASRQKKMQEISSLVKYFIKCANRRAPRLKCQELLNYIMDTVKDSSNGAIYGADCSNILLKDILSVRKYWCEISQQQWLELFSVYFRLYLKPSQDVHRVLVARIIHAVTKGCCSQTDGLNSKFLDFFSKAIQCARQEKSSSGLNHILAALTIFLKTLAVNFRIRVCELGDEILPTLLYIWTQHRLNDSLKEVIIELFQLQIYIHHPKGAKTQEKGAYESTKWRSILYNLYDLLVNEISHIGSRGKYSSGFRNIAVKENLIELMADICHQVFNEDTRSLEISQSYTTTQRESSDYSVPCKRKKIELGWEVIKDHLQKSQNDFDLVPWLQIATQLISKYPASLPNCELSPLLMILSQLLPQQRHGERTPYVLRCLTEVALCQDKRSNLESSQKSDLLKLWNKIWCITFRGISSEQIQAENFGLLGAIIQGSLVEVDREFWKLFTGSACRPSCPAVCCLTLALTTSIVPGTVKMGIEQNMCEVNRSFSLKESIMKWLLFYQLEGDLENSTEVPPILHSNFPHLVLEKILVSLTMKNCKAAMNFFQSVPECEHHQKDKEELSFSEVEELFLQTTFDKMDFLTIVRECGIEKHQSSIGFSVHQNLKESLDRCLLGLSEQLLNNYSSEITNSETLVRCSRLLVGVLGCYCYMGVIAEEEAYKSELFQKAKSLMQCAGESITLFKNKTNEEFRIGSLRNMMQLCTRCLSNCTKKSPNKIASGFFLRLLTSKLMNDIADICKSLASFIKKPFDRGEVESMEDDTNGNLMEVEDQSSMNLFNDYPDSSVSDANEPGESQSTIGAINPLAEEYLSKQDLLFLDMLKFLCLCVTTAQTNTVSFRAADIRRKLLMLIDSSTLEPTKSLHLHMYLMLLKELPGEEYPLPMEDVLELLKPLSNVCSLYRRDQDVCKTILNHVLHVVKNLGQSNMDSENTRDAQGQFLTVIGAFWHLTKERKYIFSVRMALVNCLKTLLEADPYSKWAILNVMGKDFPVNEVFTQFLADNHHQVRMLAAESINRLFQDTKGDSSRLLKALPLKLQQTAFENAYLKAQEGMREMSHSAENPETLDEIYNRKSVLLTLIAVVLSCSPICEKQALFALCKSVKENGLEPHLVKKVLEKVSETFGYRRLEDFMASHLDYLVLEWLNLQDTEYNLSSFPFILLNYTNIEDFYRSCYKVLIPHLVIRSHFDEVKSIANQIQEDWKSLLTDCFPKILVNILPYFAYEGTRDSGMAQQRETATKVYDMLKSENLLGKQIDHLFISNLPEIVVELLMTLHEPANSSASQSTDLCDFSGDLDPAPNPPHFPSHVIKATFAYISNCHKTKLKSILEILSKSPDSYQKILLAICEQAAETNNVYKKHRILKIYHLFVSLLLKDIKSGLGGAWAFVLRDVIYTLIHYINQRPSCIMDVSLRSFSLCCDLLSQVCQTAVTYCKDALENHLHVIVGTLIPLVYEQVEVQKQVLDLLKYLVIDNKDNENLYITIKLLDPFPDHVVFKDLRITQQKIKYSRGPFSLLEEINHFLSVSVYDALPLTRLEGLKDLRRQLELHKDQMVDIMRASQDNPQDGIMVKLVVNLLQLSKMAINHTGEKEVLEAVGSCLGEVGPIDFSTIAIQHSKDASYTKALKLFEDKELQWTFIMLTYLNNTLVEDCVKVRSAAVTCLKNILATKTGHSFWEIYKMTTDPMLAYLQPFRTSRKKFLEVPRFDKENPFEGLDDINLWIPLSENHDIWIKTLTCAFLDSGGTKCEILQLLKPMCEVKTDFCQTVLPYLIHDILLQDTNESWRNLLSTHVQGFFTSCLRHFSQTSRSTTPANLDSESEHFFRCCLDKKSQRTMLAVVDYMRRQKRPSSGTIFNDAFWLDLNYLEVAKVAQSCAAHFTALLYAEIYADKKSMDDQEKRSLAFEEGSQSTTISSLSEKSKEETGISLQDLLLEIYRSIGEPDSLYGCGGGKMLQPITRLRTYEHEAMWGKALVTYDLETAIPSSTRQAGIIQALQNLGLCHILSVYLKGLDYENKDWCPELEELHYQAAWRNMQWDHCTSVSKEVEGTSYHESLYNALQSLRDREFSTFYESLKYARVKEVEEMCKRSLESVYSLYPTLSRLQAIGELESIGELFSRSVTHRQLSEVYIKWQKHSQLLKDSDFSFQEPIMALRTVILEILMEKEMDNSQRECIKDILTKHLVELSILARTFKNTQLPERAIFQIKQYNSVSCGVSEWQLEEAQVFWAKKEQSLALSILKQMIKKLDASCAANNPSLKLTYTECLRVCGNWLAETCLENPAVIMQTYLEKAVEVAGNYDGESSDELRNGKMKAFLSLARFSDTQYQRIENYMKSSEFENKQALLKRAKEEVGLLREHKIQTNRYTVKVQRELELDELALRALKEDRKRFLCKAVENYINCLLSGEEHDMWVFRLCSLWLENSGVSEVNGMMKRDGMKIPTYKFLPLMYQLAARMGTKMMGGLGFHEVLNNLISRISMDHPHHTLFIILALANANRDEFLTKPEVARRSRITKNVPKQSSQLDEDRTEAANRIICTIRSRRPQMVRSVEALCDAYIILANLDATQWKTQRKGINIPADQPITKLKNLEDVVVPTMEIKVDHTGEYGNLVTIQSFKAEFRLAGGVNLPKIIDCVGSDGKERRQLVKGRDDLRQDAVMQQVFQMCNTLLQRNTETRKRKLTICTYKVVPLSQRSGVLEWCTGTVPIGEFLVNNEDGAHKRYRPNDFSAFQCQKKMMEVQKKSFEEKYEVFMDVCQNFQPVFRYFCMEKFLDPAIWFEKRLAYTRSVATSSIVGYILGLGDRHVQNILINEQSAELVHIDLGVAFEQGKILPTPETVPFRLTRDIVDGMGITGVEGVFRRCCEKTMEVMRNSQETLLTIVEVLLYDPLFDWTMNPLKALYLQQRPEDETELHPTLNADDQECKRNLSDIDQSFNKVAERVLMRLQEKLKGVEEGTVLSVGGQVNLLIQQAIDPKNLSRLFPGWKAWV
panel of human kinases (kinase named in endpoint) (Homo sapiens, UniProt P10721), sequence (P10721 26-976): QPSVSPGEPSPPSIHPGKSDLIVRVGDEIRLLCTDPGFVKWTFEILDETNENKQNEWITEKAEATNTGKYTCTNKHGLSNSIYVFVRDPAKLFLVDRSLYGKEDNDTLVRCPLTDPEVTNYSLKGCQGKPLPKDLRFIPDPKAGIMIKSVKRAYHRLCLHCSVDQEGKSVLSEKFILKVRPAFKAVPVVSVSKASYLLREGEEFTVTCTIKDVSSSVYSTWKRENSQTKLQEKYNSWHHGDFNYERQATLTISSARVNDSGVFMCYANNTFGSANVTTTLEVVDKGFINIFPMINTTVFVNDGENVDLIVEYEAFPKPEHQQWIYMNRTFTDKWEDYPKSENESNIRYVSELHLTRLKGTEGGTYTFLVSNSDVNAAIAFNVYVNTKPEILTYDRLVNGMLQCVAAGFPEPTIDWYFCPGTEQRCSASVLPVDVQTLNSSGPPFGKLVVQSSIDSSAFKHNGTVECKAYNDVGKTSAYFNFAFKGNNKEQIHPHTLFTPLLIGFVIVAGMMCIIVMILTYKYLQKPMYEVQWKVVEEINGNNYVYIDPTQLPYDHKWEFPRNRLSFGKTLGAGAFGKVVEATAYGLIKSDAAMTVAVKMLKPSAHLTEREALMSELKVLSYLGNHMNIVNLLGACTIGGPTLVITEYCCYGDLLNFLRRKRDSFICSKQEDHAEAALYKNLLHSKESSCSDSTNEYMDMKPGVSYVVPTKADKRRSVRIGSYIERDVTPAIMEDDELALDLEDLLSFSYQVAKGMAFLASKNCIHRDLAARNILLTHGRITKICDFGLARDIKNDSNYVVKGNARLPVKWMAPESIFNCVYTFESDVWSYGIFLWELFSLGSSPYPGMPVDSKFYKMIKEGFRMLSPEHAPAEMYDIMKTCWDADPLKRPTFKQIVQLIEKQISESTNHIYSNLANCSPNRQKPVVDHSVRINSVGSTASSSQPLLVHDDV
panel of human kinases (kinase named in endpoint) (Homo sapiens, UniProt P45983), sequence (P45983 whole entry): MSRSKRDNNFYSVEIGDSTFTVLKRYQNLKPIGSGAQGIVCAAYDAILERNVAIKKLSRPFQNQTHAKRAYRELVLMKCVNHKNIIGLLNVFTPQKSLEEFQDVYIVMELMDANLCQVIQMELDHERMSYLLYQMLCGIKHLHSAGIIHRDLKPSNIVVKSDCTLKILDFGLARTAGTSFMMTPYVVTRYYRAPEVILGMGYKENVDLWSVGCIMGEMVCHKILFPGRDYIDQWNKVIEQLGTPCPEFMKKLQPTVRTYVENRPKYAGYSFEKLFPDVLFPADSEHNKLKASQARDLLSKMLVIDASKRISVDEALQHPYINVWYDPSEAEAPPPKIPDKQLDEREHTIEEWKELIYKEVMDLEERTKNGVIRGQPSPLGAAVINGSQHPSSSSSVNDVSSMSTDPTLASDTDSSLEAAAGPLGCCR
panel of human kinases (kinase named in endpoint) (Homo sapiens, UniProt Q96PF2), sequence (Q96PF2 whole entry): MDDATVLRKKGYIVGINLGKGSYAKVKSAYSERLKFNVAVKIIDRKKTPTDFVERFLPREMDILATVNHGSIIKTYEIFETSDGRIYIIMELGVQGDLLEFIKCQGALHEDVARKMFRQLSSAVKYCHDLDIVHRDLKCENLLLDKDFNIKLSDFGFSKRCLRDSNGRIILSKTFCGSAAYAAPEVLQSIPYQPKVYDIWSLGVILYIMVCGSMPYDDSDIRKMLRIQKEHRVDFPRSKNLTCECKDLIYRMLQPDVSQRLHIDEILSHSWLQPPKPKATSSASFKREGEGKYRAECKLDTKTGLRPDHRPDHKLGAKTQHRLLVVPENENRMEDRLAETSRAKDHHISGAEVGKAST

## CC(C)C(=O)Nc1nc2cc(-c3ccc4c(c3)c(C(=O)NC(C)c3ccccc3)cn4C)ccn2n1 (stereo not drawn) [RI-962]
[1]
  activity at 10 µM: 88%
[2]
  activity at 10 µM: 52%
[3]
  activity at 10 µM: 98%
[4]
  activity at 10 µM: 104%
[5]
  activity at 10 µM: 105%
[6]
  activity at 10 µM: 100%
[7]
  activity at 10 µM: 107%
[8]; read-out: Activity (%), CDK2/cyclinA(h)
  activity at 10 µM: 122%
[8]; read-out: Activity (%), CDK2/cyclinE(h)
  activity at 10 µM: 92%
[9]
  activity at 10 µM: 80%
[10]
  activity at 10 µM: 94%
[11]
  activity at 10 µM: 95%
[12]
  activity at 10 µM: 99%
[13]
  activity at 10 µM: 111%
[14]
  activity at 10 µM: 85%
[15]
  activity at 10 µM: 93%
[16]
  activity at 10 µM: 84%
[17]
  activity at 10 µM: 105%
[18]
  activity at 10 µM: 81%
[19]
  activity at 10 µM: 89%
[20]
  activity at 10 µM: 76%
[21]
  activity at 10 µM: 79%
[22]
  activity at 10 µM: 93%
[23]
  activity at 10 µM: 68%
[24]
  activity at 10 µM: 96%
[25]
  Activity (%), ACTR2(h): 81%
  Activity (%), CK1(y): 100%
  Activity (%), MAPK1(h): 94%
  Activity (%), PKCβII(h): 87%
  Activity (%), PKG1β(h): 98%
